Patent publication US20220096449A1, “METHOD OF TREATMENT WITH TRADIPITANT” (Vanda Pharmaceuticals Inc., priority 2018, published 2022)
Marks after values point to notes of the source that are not given here.

System: apomorphine-induced emesis
Assay: Apomorphine emetic challenge in beagle dogs
Assay type: in vivo, beagle dog
Conditions: 3.0 mg/kg oral, apomorphine 0.1 mg/kg iv 2 hours later, 5 dogs
Experimental: Over the five (5) weeks of the study, each animal receives each of the treatments, but only one per week. The purpose of this study is to determine if tradipitant suppresses apomorphine-induced emesis.
All animals are dosed over a period of five (5) weeks, with each dog receiving one of five different treatments on each day of dosing.
All dogs are fasted overnight prior to each treatment day and then fed approximately one (1) hour after oral dosing (approximately one (1) hour prior to administration of apomorphine). Individual doses are adjusted weekly for changes in body weight.
The dose regimen consists of a 5×5 Latin square design, in which each subject receives 1 dose or dose combination per week (6 day washout) as shown in Table 3 below.

Compound: C[C@@H](O[C@H]1OCCN(Cc2n[nH]c(=O)[nH]2)[C@H]1c1ccc(F)cc1)c1cc(C(F)(F)F)cc(C(F)(F)F)c1 [Aprepitant, reference compound]
- Total No. Emetic Episodes: 1**
